Results taken from publication PMC13304593 (Pharmaceuticals, 2026).

Assay: Pharmacokinetics of DTX in mice after oral administration
Type: in vivo, Kunming mice
Conditions: lung, oral 20 mg/kg DTX or equivalent
Method: Briefly, the samples were precipitated with three volumes of acetonitrile and analyzed using an LC-MS/MS system comprising a Waters ACQUITY ultra-high-performance liquid chromatography (UPLC) system (Waters Corporation, Milford, MA, USA) and an API 5500 mass spectrometer (AB Sciex LLC, Framingham, MA, USA) equipped with an electrospray ionization source. Separation was performed on an ACQUITY BEH C18 column (2.1 × 100 mm, 1.7 μm; Waters) using a gradient elution.
One hundred specific-pathogen-free (SPF) male Kunming mice (body weight: 22–24 g) were purchased from the Beijing Vital River Laboratory Animal Technology Co., Ltd. (Beijing, China). Mice were housed in an air-conditioned room maintained at 22–24 °C with a 12 h light/12 h dark cycle. Prior to the experiment, mice were fasted for 12 h with free access to water.
Mice were randomly divided by body weight into two main groups, each subdivided into 10 subgroups. […] At each time point post-administration (0.083, 0.25, 0.5, 1, 2, 3, 4, 6, 8, and 12 h), one subgroup of mice from each main group was anesthetized with Zoletil® 50. Systemic blood was collected and heparinized to prepare the plasma. Next, the animals were immediately euthanized by cervical dislocation under deep anesthesia prior to liver and lung excision. […]
Quantitative data are expressed as the mean ± SD.

t1/2: 2.6 h
SMILES: CC(=O)O[C@@]12CO[C@@H]1C[C@H](O)[C@@]1(C)C(=O)[C@H](O)C3=C(C)[C@@H](OC(=O)[C@H](O)[C@@H](NC(=O)OC(C)(C)C)c4ccccc4)C[C@@](O)([C@@H](OC(=O)c4ccccc4)[C@H]21)C3(C)C [DTX, docetaxel]
